Where two headings read alike, the source gives them in different places.
Columns and labels:
3T3 cells = assay: Cytotoxicity: cell proliferation assay (crystal violet stain) and morphology; assay type: cell-based
Protocol: (§1) Fig.1. The cytotoxicity of ST104P in different types of cells. […] After treatment of ST104P at 10-500 µg/ml in DMEM medium containing 10% FCS for 24 h, the morphologies of BAEC and 3T3 cells were monitored under phase contrast microscopy. The pictures were taken at 400× magnification. (B). The dose-dependent effect of ST104P on the proliferation of different cells. After treatment with ST104P at 10-500 µg/ml or PBS for 48 h, the viability of various cells was determined by crystal violet method in an ELISA reader. Each data represent mean ± SD of quadruplicate experiments. Asterisks indicated statistic significance versus control (P<0.001).
(§2) Human umbilical vein endothelial cells (HUVEC; passage 3 to 6) were isolated from umbilical veins and cultured in RPMI 1640 medium (Life Technologies, Gaithersburg, MD) containing 15% fetal calf serum, 20 U/ml porcine heparin (Sigma Chemical Co), and 100 µg/ml endothelial cell growth supplement (Calbiochem; La Jolla, CA). […]
(§3) The effect of ST104P on the viability of various cells was determined using crystal violet stain assay. […] The dye in viable cells was measured by reading the optical density at 590 nm using a scanning multi-well spectrophotometer (ELISA reader; Dynatech Laboratories, Chantilly, VA).

CAM = assay: Chorioallantoic membrane (CAM) assay
Protocol: The CAMs in 8-day old chicken embryos were incubated with saline or ST104P (50 or 200 µg in saline) for 48 h. The angiogenesis profiles on CAMs were recorded under dissection microscope.
The CAM assay was carried out as described previously (Sheu et al., Anticancer Res 18, 4435-4441,1998). Briefly, fertilized White Leghorn chicken eggs were purchased from Taiwan Provincial Research Institute for Animal Health (Hsin-Chu, Taiwan) and incubated at 37 °C with 60% humidity. On day 3, a square window was opened in the shell, and 2 to 3 ml of albumen was removed to allow detachment of the developing CAM. The window was sealed with a glass, and the eggs were returned to the incubator. On day 8, 50-100 µg ST104P in saline was injected onto the top of the CAM. The CAMs were examined daily until day 10-12, when the angiogenic response peaks, and photographed in ovo with a stereomicroscope equipped with Zeiss MC63 camera system (Zeiss, Oberkochen, Germany). The experiments were carried out using 10 eggs per group.

BAEC [1] = assay: Cytotoxicity: cell proliferation assay (crystal violet stain) and morphology; assay type: cell-based, Bovine
Protocol: as §1
Human umbilical vein endothelial cells (HUVEC; passage 3 to 6) were isolated from umbilical veins and cultured in RPMI 1640 medium (Life Technologies, Gaithersburg, MD) containing 15% fetal calf serum, 20 U/ml porcine heparin (Sigma Chemical Co), and 100 µg/ml endothelial cell growth supplement (Calbiochem; La Jolla, CA). Bovine aortic endothelial (BAEC) cells, 3T3 cells, and LL2 Lewis lung carcinoma cells were cultured with DMEM (Dulbecco's Modified Eagle Medium; Gibco BRL, Rockville, MD) containing 10% fetal calf serum (PAA, Austria), 2 mM glutamine, 100 U/ml penicillin and 100 µg/ml streptomycin (Gibco BRL, Rockville, MD) in 5% CO2 at 37 °C. Human vascular endothelial EA.hy926 cells were cultured in DMEM (Dulbecco's Modified Eagle Medium; Gibco BRL, Rockville, MD) containing 10% fetal calf serum (PAA, Austria), 100 µM sodium hypoxanthine, 0.4 µM aminopterin, 16 µM thymidine (HAT; Gibco BRL, Rockville, MD), 2 mM glutamine, 100 U/ml penicillin and 100 µg/ml streptomycin (Gibco BRL, Rockville, MD) in 5% CO2 at 37 °C.
as §3, with “assay. Briefly, cells cultured in 96-well plate (2-4 x10^3 cells/well) were treated with various doses of ST104P for 48 h.” for “assay.”

EA.hy926 [2] = assay: Cytotoxicity: cell proliferation assay (crystal violet stain); assay type: cell-based, Human
Protocol: as §1, §2, §3

BAEC [3] = assay: Tube formation assay in Matrigel; assay type: cell-based, Bovine; settings: 20-100 µg/ml
Protocol: (§4) Fig. 3. ST104P abolished the tube formation of endothelial cells. Application of ST104P perturbed tubular network of BAEC or EA.hy9236 cells in Matrigel. Endothelial cells were applied to Matrigel-coated plate in the absence or presence of ST104P. After 8 h, the tubular structures of BAEC cells were monitored and recorded under light microscopy. The pictures were taken at 400× magnification.
(§5) Matrigel (Becton Dickinson; Bedford, MA) was diluted with cold serum-free medium to 10 mg/ml. Two hundred µl of the diluted solution were added to each well in 24-well plate and allowed to form a gel at 37 °C for 30 min. BAEC or HUVEC (1.5 x 10^5 cells per ml) were initially incubated for 15 min with various doses of ST104P in complete medium. Two hundred µl of the cell suspension (3 x 10^4 cells) were then subsequently added to each well and incubated for 6-8 h at 37 °C in 5% CO2. Under these conditions endothelial cells form delicate networks of tubes that are detectable within 2-3 h and are fully developed after 8-12 h. After incubation with ST104P, the wells were washed and the Matrigel and its endothelial tubes were fixed with 3% paraformaldehyde.

Lewis lung carcinoma = assay type: in vivo, C57BL/6J mice
Protocol: Fig. 6. Injection of ST104P suppressed tumor growth of Lewis lung carcinoma in mice. The subcutaneous dorsa of mice were implanted with Lewis lung carcinomas. The tumor sizes in mice during treatment with ST104P or control were recorded. […] Each point represents mean ± SEM for ten mice.
Fig. 7. Injection of ST104P prolonged the survival of tumor-bearing mice. The subcutaneous dorsa of mice were implanted with Lewis lung carcinomas. The tumor sizes in mice during treatment with ST104P or control were recorded. […] Each point represents mean ± SEM for ten mice. The overall survival rates of ten mice in PBS- or ST104P-treated group were recorded.
Animal study was carried out in the animal facility of Kaohsiung Veterans General Hospital in accordance with institutional guidelines. Male C57BL/6J mice (6- to 8-week-old; Animal Center of National Cheng Kung University, Taiwan) were used. Mice were acclimated and caged in groups of four or less. All mice were fed with a diet of animal chow and water ad libitum. Animals were anesthetized in a methoxyflurane chamber prior to all procedures and were observed until fully recovered. Animals were sacrificed by a lethal dose of methoxyflurane.
C57BL/6J mice were implanted with Lewis lung carcinomas cells using the techniques described previously (O'Reilly et al., Cell 88, 277-285,1997). Briefly, the LL2 Lewis lung carcinoma cells were resuspended in PBS at the concentration of 2.5 x 10^6 cells per ml and injected into C57B16/J mice (n = 20) with 0.1 ml of the cell suspension to induce tumor. Tumors were measured with a dial-caliper and volumes were determined using the formula width^2 × length × 0.52. After tumor volumes reached 100-200 mm^3, mice were randomized into two groups receiving periodic injection of ST104P (n=10) or saline (n = 10) by subcutaneous injection at a site near tumor. The measurement of tumor size was terminated when mice began to die. In addition, the survival rate of mice in different groups was recorded and analyzed by Kaplan-Mier Survival analysis.

EA.hy926 cells = assay: Tube formation assay in Matrigel; assay type: cell-based, Human; settings: 20-100 µg/ml
Protocol: as §4, §5

BAEC [4] = assay: Cell migration assay (Boyden chamber, bFGF as chemoattractant); assay type: cell-based, Bovine; settings: incubation 6 h, bFGF 100 ng/ml
Protocol: Fig. 2. ST104P inhibited the migration of endothelial cells. The effect of ST104p on migration of endothelial cells. BAEC were plated in 6-well plate (1 x 10^6 cells per well) and treated with vasostatin of indicated dose for 12 h. After trypsinization, endothelial cells were applied to top wells in Boyden chamber to initiated migration toward chemoattractant bFGF (100 ng/ml) in the bottom wells. The migrated cells on filter were stained and counted. Each point represents mean ± SEM of triplicate experiments.
Endothelial cells were treated with ST104P of indicated doses for 6-12 h, harvested by trysinization, collected by centrifugation, resuspended in DMEM media containing 0.1% BSA, and seeded in triplicate for each dose and controls in the upper compartment of the chamber (1.2 x 10^5 cells in 400 µl). The lower compartment was filled with 200 µl of the DMEM media containing 100 ng/ml bFGF (R&D, Minneapolis, MN) as the chemoattractant, or with DMEM media containing 0.1% BSA as the negative control (to evaluate random migration). […] After incubation for 2-4 h in a humidified 5% CO2 atmosphere at 37 °C, cells on the upper side of the filter were removed, and those that had migrated to the lower side were fixed in absolute ethanol, stained with 10% Giemsa solution (Merck, Germany), and counted as a mean ± SD per filter under five different high power fields.

EA.hy926 [5] = assay: as above; assay type: cell-based, Human; settings: EA.hy926, incubation 6 h, bFGF 100 ng/ml
MMP-9 = assay: MMPs secretion by endothelial cells, gelatin zymography; assay type: cell-based; settings: BAEC and EA.hy926, even at dose as low as 10 µg/ml, 24 h, conditioned media
Protocol: (§6) ST104P decreases the MMPs secretion by endothelial cells. The conditioned media of BAECs or EA.hy926 cells (in 24-well plate at 1x10^4 cells/well) treated with PBS or ST104P (10-500 µg/ml) for […] were collected to analyze the expression of MMPs by gelatin-PAGE zymography.
(§7) Secretion of MMPs by endothelial cells was assessed by 0.1% gelatin-SDS-PAGE zymography. Briefly, endothelial cells near 80% confluence were washed twice with serum-free media and treated with various doses of vasostatin for 24-48 h: Conditioned media were collected and assayed for protein concentration by Bradford assay. Aliquots of conditioned media were subjected to separation with 10% SDS-PAGE containing 0.1% type A gelatin (Sigma; St. Louis, MO). After electrophoresis, gel was washed twice with 2.5% Triton X-100, incubated in buffer containing 40 mM Tris-HCl, pH 8.0, 10 mM CaCl2, 0.01% sodium azide at 37 °C for 12-24 h, stained with 0.25% Coomassie Blue R-250 in 50% methanol and 10% acetic acid for 1 h, and destained with 10 % acetic acid, 20% methanol. The gelatinolytic regions by MMPs were visualized as white bands in blue background.

MMP-2 = assay: as above; assay type: cell-based; settings: BAEC and EA.hy926, even at dose as low as 10 µg/ml, 24 h, conditioned media
Protocol: as §6, §7

[6] = in vivo
[7] = molar equivalent given for 500 µg/ml, read-out: IC50
[8] = proliferation/viability, 48 h, crystal violet

tetrameric cyclic compound of 4,5-dihydroxynaphthalene-2,7, disulfonic acid linked by methylene bridges [ST104P]
IC50 (3T3 cells; [7]): > 350 µM | IC50 (3T3 cells; [8]): > 500 µg/mL | inhibition of angiogenesis (CAM; 50 µg per CAM, 8-day old chick embryos): 50% | mortality of chick embryos (CAM; 200 µg per CAM, 9 out of 10 died versus 0 in PBS-treated group, used as index of angiogenesis inhibition): 90% | vascular network on CAMs (CAM; 50 or 200 µg in saline, 48 h, 8-day old chicken embryos): severely destroyed | morphologies of cells (BAEC [1]; 10-500 µg/ml, DMEM with 10% FCS, 24 h, phase contrast microscopy): altered the morphologies of endothelial cells | IC50 (BAEC [1]; [7]): > 350 µM | IC50 (BAEC [1]; [8]): > 500 µg/mL | IC50 (EA.hy926 [2]; EA.hy926, molar equivalent given for 500 µg/ml, read-out: IC50): > 350 µM | IC50 (EA.hy926 [2]; proliferation/viability, EA.hy926, 48 h, crystal violet): > 500 µg/mL | tube formation (vessel-like structure in Matrigel) (BAEC [3]): effectively abolished the vessel-like structure | decrease of average tumor size versus saline-treated groups (Lewis lung carcinoma; 100 µg, subcutaneous injection for four times): ~ 40% | average tumor size (Lewis lung carcinoma; 100 µg, subcutaneous injection for four times, saline-treated 4876 ± 670 mm^3, P < 0.05): 2620 ± 320 mm^3 | weight loss or adverse effects (Lewis lung carcinoma; mouse, in vivo): no evident weight loss or adverse effects | survival of tumor-bearing mice (Lewis lung carcinoma; versus vehicle-treated group, P < 0.01, Kaplan-Meier): survived significantly longer | tube formation (vessel-like structure in Matrigel) (EA.hy926 cells): effectively abolished the vessel-like structure | IC50 (migration toward chemoattractant bFGF) (BAEC [4]): 100 µg/mL | IC50 (migration toward chemoattractant bFGF) (EA.hy926 [5]): 100 µg/mL | secretion of MMP-9 by endothelial cells (MMP-9): potently inhibited the secretion | secretion of MMP-2 by endothelial cells (MMP-2): potently inhibited the secretion | tolerability [6]: well tolerated

— patent EP1825852A1, “ST104P as an anti-angiogenic agent” (Sagittarius Life Science Corp., priority 2006, dated 2007)
